The record followed here is patent US20220288404A1, “METHODS FOR APPLYING TUMOR TREATING FIELDS IN COMBINATION WITH CANCER TREATING THERAPEUTICS” (THE BOARD OF REGENTS OF THE UNIVERSITY OF TEXAS SYSTEM, priority 2021, published 2022).

Common to all, as to type: cell-based
Experiment [1] relates to H157 cells. Put plainly: Clonogenic cell survival assay, H157 cells. The settings on record: CI>1 synergistic. How it is done: (§1) Using certain embodiments disclosed herein, TTFields in combination with various inhibitors and/or radiation treatment (IR) were applied to NSCLC cells or pancreatic cancer cells. For example, a predetermined inhibitor at a predetermined concentration was delivered to NSCLC cells or pancreatic cancer cells, and the cells were immediately exposed to TTFields (e.g., 100-250 kHz and 1-20 V/cm v/cm) for about 24, […], or 72 hours. The predetermined concentration was a cell line specific concentration for optimal target cell killing. Then, the cells were irradiated (at a dose of 2Gy) for less than a minute (e.g., 3.25 Gy/min) and immediately plated for survival.
(§2) FIGS. 4 and 5 depict example effects of TTFields, AZD6738, radiation, and a combination thereof on non-small cell lung cancer cells (NSCLC) and pancreatic cancer cell, respectively. In particular, FIGS. 4 and 5 show TTFields exposure synergistically increases the effects of ATR inhibitor AZD6738 on NSLCL cells (FIG. 4) survival and pancreatic cancer cell (FIG. 5) survival. TTFields were used together with ATR inhibitor AZD6738 and radiation (IR). A synergistic effect was observed when AZD6738 and IR were combined with TTFields using the highest single agent (HSA) approach. The following formulas were used for calculating CI: SF=Survival Fraction; CI (TTFields)+(2Gy)=(SF2Gy×SFTTFields)/SF2Gy+TTFields; CI(TTFields)+(AZD)=(SFAZD×SFTTFields)/SFAZD+TTFields; CI (2Gy)+(AZD)=(SF2Gy×SFAZD)/SF2Gy+AZD; and CI (TTFields)+(2Gy)+(AZD)=(SF2Gy×SFAZD×SFTTFields)/SFTTFields+2Gy+AZD.
(§3) The following formulas are used for calculating the combination Index: SF=Survival Fraction; CI (TTFields)+(2Gy)=(SF2Gy×SFTTFields)/SF2Gy+TTFields; CI(TTFields)+(Irino)=(SFIrino×SFTTFields)/SFIrino+TTFields; CI (2Gy)+(Irino)=(S2Gy×SFIrino)SF2Gy+Irino; and CI (TTFields)+(2Gy)+(Irino)=(SF2Gy×SFIrino×SFTTFields)/SFTTFields+2Gy+Irino.

Experiment [2] deals with NSCLC. Put plainly: Cell survival of NSCLC cells with CP/ETP with/without TTFields (FIG. 6). The settings on record: HSA approach. How it is done:
as §1
FIG. 6 depicts example effects of TTFields, Cisplatin, Etoposide, and a combination thereof on NSCLC. […] CP and ETP were tested alone or in combination and with/without TTFields.

The subject of experiment [3] is H1299 cells. Put plainly: Clonogenic cell survival assay, H1299 cells. The note with it: CI>1 synergistic. How it is done:
as §1, §2, §3

The test system of experiment [4] is H157 cells. Put plainly: Clonogenic cell survival assay, H157 cells. The note with it: 48 h, CI>1 synergistic.

Take `N.N.[Cl][Pt][Cl]` [CP, Cisplatin]: the “CI TTFields + CP” value came out at 0.887 in experiment [1] (24 h); 0.869 in experiment [1] (48 h); 1.079 in experiment [1] (72 h); 1.140 in experiment [3] (24 h); 1.021 in experiment [3] (48 h); 1.225 in experiment [3] (72 h). In addition, the “cell killing capacity in combination with TTFields” value in experiment [2] is “synergistically enhanced”.
In the case of `COc1cc([C@@H]2c3cc4c(cc3[C@@H](O[C@@H]3O[C@@H]5CO[C@@H](C)O[C@H]5[C@H](O)[C@H]3O)[C@H]3COC(=O)[C@H]23)OCO4)cc(OC)c1O` [ETOP, Etoposide], the “CI TTFields + ETOP” value worked out at 0.842 in experiment [1] (24 h); 1.021 in experiment [1] (72 h); 0.995 in experiment [4]; 1.387 in experiment [3] (24 h); 1.174 in experiment [3] (48 h); 1.140 in experiment [3] (72 h). Besides, the “cell killing capacity in combination with TTFields” value in experiment [2] is listed as “synergistically enhanced”.
